Results published in US20030237103A1, “Methods and compositions for pharmacological and toxicological evaluation of test agents” (priority 2002, published 2003).
Like-named read-outs stand apart in the source and are kept apart here.

Tests used:
[1] = test system: Panel, CD-IGS and parental rat strains; assay: Kidney histology of gentamicin- and vehicle-treated rats
Source text: Arrows point to regions of the proximal tabules damage scored as follows: 0=no damage, 1=25% injured tubules, 2=50% injured tubules and protein casts in lumens, 3=severe injury of >50% of tubules, 4=nearly complete necrosis of all tubules. Representative histological samples from the outbred Sprague Dawley rat CD-IGS (Panel B) and the four inbred parental strains Brown Norway, Fischer 344, Lewis and Wistar Kyoto rats (Panel C) are also shown.
We sought to maximize the range of genetic susceptibility to the adverse drug effects across the strains.

[2] = test system: Sprague Dawley, LEW and F344 rats; conditions: cited from earlier work

## gentamicin
[1]; F1 hybrids except WKYxBN
  damage to proximal tubules: ≥ 50%
[1]; LEW×F344 F1 rats, 240 mg/Kg/day
  kidney damage by histology: nearly complete necrosis of all proximal tubules
[1]; WKY rats
  effect on the kidney: virtually no effect
[1]; WKY rats, both vehicle and gentamicin treated
  injured tubules: 25%
[1]; WKYxBN F1 strain
  renal damage by histology: little renal damage
[1]; gentamicin-treated parental strains except WKY
  tubules damaged: greater than 50%
[2]; F344 compared with SD
  susceptibility to nephrotoxic effects: more susceptible
[2]; LEW strain
  nephrotoxic effects (protein in the urine): sensitive
[2]; Sprague Dawley rats
  nephrotoxic effects (protein in the urine): resistant
